Active and inactive are the calls of the source. The calls are words filed in the database; no cut-off is given here.
Assays:
Escherichia coli [1] = assay: Photodynamic antibacterial activity against Escherichia coli EHEC assessed as reduction in colony forming units at 50 ug/ml preincubated for 5 mins in PBS followed by light irradiation for 20 mins and later cultured on LB agar plate for 18 hrs by plate-count method; assay type: functional, organism-based; conditions: dose 50.0 µg/ml, time 1105.0 min
Escherichia coli [2] = assay: Antibacterial activity against Escherichia coli assessed as inhibition of bacterial growth by CLSI based broth microdilution method; assay type: functional, organism-based
Staphylococcus aureus [3] = assay: Photodynamic antibacterial activity against Staphylococcus aureus ATCC 25923 assessed as log reduction in colony forming units at 50 ug/ml preincubated for 5 mins in PBS followed by light irradiation for 20 mins and later cultured on LB agar plate for 18 hrs by plate-count method; assay type: functional; conditions: dose 50 µg/ml; time 1105 min; 18.42 h
Staphylococcus aureus [4] = assay: Photodynamic antibacterial activity against Staphylococcus aureus ATCC 25923 assessed as reduction in colony forming units at 50 ug/ml preincubated for 5 mins in PBS followed by light irradiation for 5 to 20 mins and later cultured on LB agar plate for 18 hrs by plate-count method; assay type: functional, organism-based; conditions: dose 50.0 µg/ml, time 1090-1105 min
Staphylococcus aureus [5] = assay: Antibacterial activity against Staphylococcus aureus assessed as inhibition of bacterial growth by CLSI based broth microdilution method; assay type: functional
Staphylococcus aureus [6] = assay: Antibacterial activity against Staphylococcus aureus ATCC 25923 assessed as reduction in colony forming units at 50 ug/ml preincubated for 5 to 20 mins in PBS followed by culturing on LB agar plate for 18 hrs by plate-count method; assay type: functional, organism-based; conditions: dose 50.0 µg/ml, time 1085-1100 min
[7] = Induction of ROS generation in aqueous solution assessed as hydroxyl radical generation (.OH) at 10 ug/ml pretreated with compound followed by light irradiation for 28 mins by fluorescence based analysis; assay type: functional; conditions: dose 10.0 µg/ml
[8] = Induction of ROS generation in aqueous solution assessed as singlet oxygen generation (1O2) at 10 ug/ml pretreated with compound followed by light irradiation for 28 mins by fluorescence based analysis; assay type: functional; conditions: dose 10.0 µg/ml
[9] = Aqueous solubility of the compound relative to berberine; assay type: physicochemical; conditions: buffer
Staphylococcus aureus [10] = assay: Antibacterial activity against Staphylococcus aureus ATCC 29213 assessed as inhibition of bacterial growth by CLSI based broth microdilution method; assay type: functional, organism-based
Staphylococcus aureus [11] = assay: Antibacterial activity against Staphylococcus aureus infected in mouse assessed as reduction in pyosis in wounds at 50 ug/ml measured on day 1; assay type: functional, organism-based; conditions: dose 50.0 µg/ml, time 1.0 day
[12] = Stability of the compound in the solution assessed as fluorescence intensity measured after 28 mins of light exposure by fluorescence based analysis; assay type: physicochemical; conditions: read-out: Stability
Staphylococcus aureus [13] = assay: Photodynamic antibacterial activity against Staphylococcus aureus infected in mouse assessed as reduction in bacterial count in wounds at 50 ug/ml pretreated with compound followed by LED light irradiation for 30 mins and on day 5 the infected tissue harvested and cultured on LB agar plate and measured after 24 hrs by plate count method; assay type: functional, organism-based; conditions: dose 50.0 µg/ml, time 6.0 day
Staphylococcus aureus [14] = assay: Photodynamic antibacterial activity against Staphylococcus aureus infected in mouse assessed as reduction in pyosis in wounds at 50 ug/ml pretreated with compound followed by LED light irradiation for 30 mins and measured on day 1; assay type: functional, organism-based; conditions: dose 50.0 µg/ml, time 1.0 day
Staphylococcus aureus [15] = assay: Photodynamic antibacterial activity against Staphylococcus aureus infected in mouse assessed as reduction in neutrophils content in wounds at 50 ug/ml and measured on day 3 by Hematoxylin-Eosin staining based analysis; assay type: functional, organism-based; conditions: dose 50.0 µg/ml, time 3.0 day
Staphylococcus aureus [16] = assay: Photodynamic antibacterial activity against Staphylococcus aureus ATCC 700699 assessed as reduction in colony forming units at 50 ug/ml preincubated for 5 mins in PBS followed by light irradiation for 20 mins and later cultured on LB agar plate for 18 hrs by plate-count method; assay type: functional, organism-based; conditions: dose 50.0 µg/ml, time 1105.0 min
DNA [17] = assay: Binding affinity to Staphylococcus aureus DNA assessed as induction of genomic DNA degradation measured after 20 mins of light irradiation by absorbance based analysis; assay type: nucleic-acid assay; conditions: dose 12.5-100 µg/ml
Staphylococcus aureus [18] = assay: Photodynamic antibacterial activity against Staphylococcus aureus ATCC 43300 assessed as reduction in colony forming units at 50 ug/ml preincubated for 5 mins in PBS followed by light irradiation for 20 mins and later cultured on LB agar plate for 18 hrs by plate-count method; assay type: functional, organism-based; conditions: dose 50.0 µg/ml, time 1105.0 min
Staphylococcus aureus [19] = assay: Antibacterial activity against Staphylococcus aureus ATCC 25923 assessed as viable cells with tiny amount of PI emission at 10 ug/ml measured under dark conditions by PI co-staining based fluorescence analysis; assay type: functional, organism-based; conditions: dose 10.0 µg/ml
Cell membrane [20] = assay: Binding affinity to cell membrane in Staphylococcus aureus assessed as membrane potential collapse at 25 to 100 ug/ml by measuring increase in fluorescence intensity measured under dark conditions by Rhodamine123 staining based fluorescence analysis; assay type: subcellular; conditions: dose 25-100 µg/ml
Staphylococcus aureus [21] = assay: Photodynamic antibacterial activity against Staphylococcus aureus infected in mouse assessed as reduction in pyosis in wounds at 50 ug/ml pretreated with compound followed by LED light irradiation for 30 mins and measured on day 5; assay type: functional, organism-based; conditions: dose 50.0 µg/ml, time 5.0 day
Staphylococcus aureus [22] = assay: Photodynamic antibacterial activity against Staphylococcus aureus ATCC 29213 assessed as reduction in colony forming units at 50 to 100 ug/ml preincubated for 5 mins in PBS followed by light irradiation for 20 mins and later cultured on LB agar plate for 18 hrs by plate-count method; assay type: functional, organism-based; conditions: dose 50-100 µg/ml, time 1105.0 min
Escherichia coli [23] = assay: Photodynamic antibacterial activity against Escherichia coli EPEC assessed as reduction in colony forming units at 50 ug/ml preincubated for 5 mins in PBS followed by light irradiation for 20 mins and later cultured on LB agar plate for 18 hrs by plate-count method; assay type: functional, organism-based; conditions: dose 50.0 µg/ml, time 1105.0 min
Staphylococcus aureus [24] = assay: Photodynamic antibacterial activity against Staphylococcus aureus infected in mouse assessed as reduction in pyosis in wounds at 50 ug/ml pretreated with compound followed by LED light irradiation for 30 mins and measured on day 3; assay type: functional, organism-based; conditions: dose 50.0 µg/ml, time 3.0 day
[25] = Drug uptake in Escherichia coli assessed as increase in bacterial imaging at 10 ug/ml by laser scanning confocal microscopic analysis; assay type: ADME; conditions: dose 10 µg/ml
[26] = Drug uptake in Escherichia coli EHEC measured after washing by absorbance based analysis; assay type: ADME
Staphylococcus aureus [27] = assay: Photodynamic antibacterial activity against Staphylococcus aureus ATCC 700699 assessed as reduction in colony forming units at 50 to 100 ug/ml preincubated for 5 mins in PBS followed by light irradiation for 20 mins and later cultured on LB agar plate for 18 hrs by plate-count method; assay type: functional, organism-based; conditions: dose 50-100 µg/ml, time 1105.0 min
[28] = Drug uptake in Staphylococcus aureus ATCC 25923 measured after washing by absorbance based analysis; assay type: ADME
Cell membrane [29] = assay: Binding affinity to cell membrane in Staphylococcus aureus assessed as membrane potential collapse at 25 to 50 ug/ml by measuring increase in fluorescence intensity measured after light irradiation by Rhodamine123 staining based fluorescence analysis; assay type: subcellular; conditions: dose 25-50 µg/ml
Staphylococcus aureus [30] = assay: Photodynamic antibacterial activity against Staphylococcus aureus ATCC 43300 assessed as reduction in colony forming units at 50 to 100 ug/ml preincubated for 5 mins in PBS followed by light irradiation for 20 mins and later cultured on LB agar plate for 18 hrs by plate-count method; assay type: functional, organism-based; conditions: dose 50-100 µg/ml, time 1105.0 min
[31] = Drug uptake in Staphylococcus aureus assessed as increase in bacterial imaging at 10 ug/ml by laser scanning confocal microscopic analysis; assay type: ADME; conditions: dose 10 µg/ml
Cell membrane [32] = assay: Disruption of inner cell membrane in Staphylococcus aureus assessed as increase in cell permeability by measuring increase in PI fluorescence intensity at 12.5 to 50 ug/ml measured after light irradiation by PI based fluorescence based analysis; assay type: subcellular; conditions: dose 12.5-50 µg/ml
Staphylococcus aureus [33] = assay: Photodynamic antibacterial activity against Staphylococcus aureus ATCC 25923 assessed as reduction in colony forming units at 50 to 100 ug/ml preincubated for 5 mins in PBS followed by light irradiation for 20 mins and later cultured on LB agar plate for 18 hrs by plate-count method; assay type: functional, organism-based; conditions: dose 50-100 µg/ml, time 1105.0 min
Staphylococcus aureus [34] = assay: Photodynamic antibacterial activity against Staphylococcus aureus ATCC 25923 assessed as reduction in bacterial cell viability by measuring increase in PI-stained cells at 10 ug/ml preincubated for 5 mins in PBS followed by light irradiation for 20 mins by PI co-staining based fluorescence analysis; assay type: functional, organism-based; conditions: dose 10.0 µg/ml, time 25.0 min
[35] = Drug uptake in Staphylococcus aureus ATCC 43300 measured after washing by absorbance based analysis; assay type: ADME
Cell membrane [36] = assay: Disruption of cell membrane in Staphylococcus aureus assessed as increase in membrane depolarization by measuring increase in fluorescence intensity measured after light irradiation by DiBAC4(3) based fluorescence analysis; assay type: subcellular; conditions: dose 25-100 µg/ml
Staphylococcus aureus [37] = assay: Photodynamic antibacterial activity against Staphylococcus aureus ATCC 29213 assessed as reduction in colony forming units at 50 ug/ml preincubated for 5 mins in PBS followed by light irradiation for 20 mins and later cultured on LB agar plate for 18 hrs by plate-count method; assay type: functional, organism-based; conditions: dose 50.0 µg/ml, time 1105.0 min
DNA [38] = assay: Binding affinity to Staphylococcus aureus DNA assessed as change in absorbance spectrum by absorbance based analysis; assay type: nucleic-acid assay
Staphylococcus aureus [39] = assay: Photodynamic bactericidal activity against Staphylococcus aureus assessed as appearance of broken and shrunk bacterial cells at 50 ug/ml pretreated for 5 mins followed by light irradiation for 20 mins SEM analysis; assay type: functional, organism-based; conditions: dose 50.0 µg/ml, time 25.0 min

For `COc1ccc2c(c1)CC[n+]1cc3cc(OC)ccc3cc1-2.[Cl-]`, the Activity (Escherichia coli [1]) was “inactive”, the Activity (Escherichia coli [2]) was “Active; Activity Against Escherichia Coli Is Lower Than Staphylococcus Aureus” and the Activity (Staphylococcus aureus [3]) was 4.5 log10CFU/ml. The Activity (Staphylococcus aureus [4]) was “Time-dependent-effect”, the Activity (Staphylococcus aureus [5]) was “Active” and the Activity (Staphylococcus aureus [6]) was “inactive”. The Activity [7] was “Active”, the Activity [8] was “Active” and the “fold change (FC)” value [9] was ~ 10.
In the case of `COc1ccc2c(c1)CC[n+]1cc3c4c(ccc3cc1-2)OCO4`, the Activity [7] is reported as “inactive” and the Activity [8] is reported as “inactive”.
In the case of `COc1ccc2c(c1)CC[n+]1cc3cc4c(cc3cc1-2)OCO4`, the Activity [7] is reported as “Active” and the Activity [8] is reported as “Active”.
In the case of `COc1cccc2cc3[n+](cc12)CCc1cc2c(cc1-3)OCO2.[Cl-]`, the Activity (Staphylococcus aureus [10]) is reported as “Active”, the Activity (Staphylococcus aureus [3]) is reported as 4 log10CFU/ml and the Activity (Staphylococcus aureus [6]) is reported as “inactive”.
In the case of `COc1ccc2c(c1)CC[n+]1cc3ccccc3cc1-2`, the Activity [7] is reported as “inactive” and the Activity [8] is reported as “inactive”.
With `COc1ccc2cc3[n+](cc2c1OC)CCc1cc2c(cc1-3)OCO2.[Cl-]` [BERBERINE CHLORIDE] the Activity (Staphylococcus aureus [11]) was “inactive”, the Activity (Staphylococcus aureus [3]) was 2 log10CFU/ml and the remaining at 28 min [12] was 60%. The Activity (Staphylococcus aureus [13]) was “Active”, the Activity (Staphylococcus aureus [14]) was “inactive” and the Activity (Staphylococcus aureus [15]) was “inactive”.
With `CCCCN1C(=O)C(=C/C=C/C2C(=O)N(CCCC)C(=O)N(CCCC)C2=O)C(=O)N(CCCC)C1=O` the remaining at 28 min [12] was 40%.
In the case of `COc1ccc2c(c1)CC[n+]1cc3c(OC)cccc3cc1-2.[Cl-]`, the Activity (Staphylococcus aureus [16]) is reported as “Active; Higher Activity Compared To Bbr And Mb But Lower Activity Compared To Ce6”, the Activity (Escherichia coli [1]) is reported as “inactive” and the Activity (DNA [17]) is reported as “Dose-dependent-effect”. For the same molecule, the Activity (Escherichia coli [2]) was “Active; Activity Against Escherichia Coli Is Lower Than Staphylococcus Aureus”, the Activity (Staphylococcus aureus [3]) was roughly 5 log10CFU/ml and the remaining at 28 min [12] was roughly 90%. The Activity (Staphylococcus aureus [18]) was “Active; Higher Activity Compared To Bbr And Mb But Lower Activity Compared To Ce6”, the Activity (Staphylococcus aureus [4]) was “Time-dependent-effect” and the Activity (Staphylococcus aureus [19]) was “inactive”. For the same molecule, the Activity (Cell membrane [20]) was “Active”, the Activity (Staphylococcus aureus [21]) was “Active; Favourable Wound Healing Status Observed” and the Activity (Staphylococcus aureus [22]) was “Dose-dependent-effect”. For the same molecule, the Activity (Escherichia coli [23]) was “Active”, the MIC (Staphylococcus aureus [5]) was 50 mg/L and the Activity (Staphylococcus aureus [24]) was “Active; Pyosis Nearly Disappeared”. The Drug uptake [25] was “Active”, the Drug uptake [26] was “Not_active” and the Activity (Staphylococcus aureus [6]) was “inactive”. For the same molecule, the Activity (Staphylococcus aureus [27]) was “Dose-dependent-effect”, the Drug uptake [28] was “Active” and the Activity [7] was “Active”. The Activity (Staphylococcus aureus [13]) was “Active”, the Activity (Staphylococcus aureus [14]) was “Active” and the Activity (Cell membrane [29]) was “Active”. The Activity (Staphylococcus aureus [30]) was “Dose-dependent-effect”, the Activity [8] was “Active” and the Drug uptake [31] was “Active”. The Activity (Cell membrane [32]) was “Dose-dependent-effect”, the Activity (Staphylococcus aureus [33]) was “Dose-dependent-effect” and the Activity (Staphylococcus aureus [34]) was “Active”. For the same molecule, the “fold change (FC)” value [9] was ~ 10, the Drug uptake [35] was “Not_active” and the Activity (Cell membrane [36]) was “Dose-dependent-effect”. The Activity (Staphylococcus aureus [37]) was “Active; Higher Activity Compared To Bbr And Mb But Lower Activity Compared To Ce6”, the Activity (DNA [38]) was “Active” and the Activity (Staphylococcus aureus [39]) was “Active”.

From ChEMBL document CHEMBL6182918, “Developing Dual-State Emission Berberine Derivatives as Theranostic Agents by Reducing Nonradiative Transition Pathways” (J Med Chem, 2025)
